Assay results as given in US20010012832A1, “Method of hormone treatment for patients with symptoms consistent with multiple sclerosis” (priority 1999, published 2001).

Columns and labels:
[1] = test system: adult female mice having induced EAE; settings: 0.6 mg subcutaneously over a ten day period; vs placebo; cited from earlier work
IGF-I levels = assay: Peak IGF-I levels in males and females before and after administration; type: in vivo, human
From the text: IGF-I is directly dependent upon the secretion of HGH by the pituitary gland, so therefore there is a direct linkage between increased secretion of HGH and increased production of IGF-I. Table II presents the effects of the low dose at high frequency human growth hormone administration (low dose-high frequency) contemplated by the invention on IGF-I (somatomedin C) blood levels. FIGS. 8 and 9 present the peak IGF-I levels in males and females, respectively, before and after administration of […]. FIGS. 8 and 9 show mean, minimum and maximum, and 25, 50, and 75 percentile for 204 males and 91 females, respectively.
The method of determining the level of the select group of hormones may be accomplished by a simple blood test. A patients' blood is evaluated for the hormone levels of the select group of hormones and those levels are compared to the optimal or predetermined physiological levels set forth in Table I. Based on the comparison of a patient's hormone levels with the optimal or predetermined physiological levels, a regimen is established for the patient for the replenishment of the level of deficient hormones to optimal physiological levels. It is further contemplated, that after the initial evaluation and the establishment of the regimen, a patient is monitored every 30 days, by a similar blood test, until the patient attains the optimal or predetermined physiological level, and the dosages of hormone supplementation are adjusted accordingly. Once the target levels are established, the regimen directs that the patient continue to follow the established dosage of supplemental hormones indefinitely to maintain the optimal or predetermined physiological levels. Periodic blood tests are subsequently administered to assure that the optimal or predetermined physiological levels are maintained.

[2] = test system: Somatomedin C Blood Levels; assay: Somatomedin C blood levels before and after low dose-high frequency human growth hormone administration; type: in vivo; settings: 47 patients; after vs before hGH
From the text: IGF-I is directly dependent upon the secretion of HGH by the pituitary gland, so therefore there is a direct linkage between increased secretion of HGH and increased production of IGF-I. Table II presents the effects of the low dose at high frequency human growth hormone administration (low dose-high frequency) contemplated by the invention on IGF-I (somatomedin C) blood levels. FIGS. 8 and 9 present the peak IGF-I levels in males and females, respectively, before and after administration of […]. FIGS. 8 and 9 show mean, minimum and maximum, and 25, 50, and 75 percentile for 204 males and 91 females, respectively. The method of the invention also contemplates that the HGH is administered in keeping with the way the pituitary secretes HGH naturally. The low dose-high frequency method mimics the pituitary gland. The pituitary secretes HGH 24 hours a day, with the peaks during the first two hours of sleep. The method contemplates that the patients take lower doses more frequently to try to mimic the natural rhythm of the body as much as possible. The invention contemplates that the patients take HGH injections at least twice daily. A preferred regimen calls for subcutaneous injections of doses less than 0.5 mg per day (approximately 1-3 I.U.), administered twice daily. Typical doses for this regimen range from 4 units per week to 8 units per week.

With Insulin-like Growth Factor-I [IGF-I] as the substance, how does the “Clinical deficits in EAE mice” value [1] read?
Its value is “reduced deficits”.

What about the “Lesions in EAE mice” value [1] of the same substance?
Its value is “reduced numbers and sizes of inflammatory, demyelinating and demyelinated lesions”.

And the “Peak IFG levels FEMALES CHANGE, 25%ile” value (IGF-I levels; 91 females)?
The value was 26.

What about the “Peak IFG levels FEMALES CHANGE, 50%ile” value (IGF-I levels; 91 females) of the same substance?
The value was 72.

And the “Peak IFG levels FEMALES CHANGE, 75%ile” value (IGF-I levels; 91 females)?
The value was 128.

And the “Peak IFG levels FEMALES CHANGE, MAX” value (IGF-I levels; 91 females)?
The value was 231.

What about the “Peak IFG levels FEMALES CHANGE, MEAN” value (IGF-I levels; 91 females) of the same substance?
The value was 74.0.

What about the “Peak IFG levels FEMALES CHANGE, MEDIAN” value (IGF-I levels; 91 females) of the same substance?
The value was 72.

What about the “Peak IFG levels FEMALES CHANGE, MIN” value (IGF-I levels; 91 females) of the same substance?
Its value is −93.

And the “Peak IFG levels FEMALES AFTER, 25%ile” value (IGF-I levels; 91 females, before 111)?
Its value is 177.

And the “Peak IFG levels FEMALES AFTER, 50%ile” value (IGF-I levels; 91 females, before 164)?
The value was 240.

What about the “Peak IFG levels FEMALES AFTER, 75%ile” value (IGF-I levels; 91 females, before 205) of the same substance?
The value was 294.

What about the “Peak IFG levels FEMALES AFTER, MAX” value (IGF-I levels; 91 females, before max 311) of the same substance?
Its value is 378.

What about the “Peak IFG levels FEMALES AFTER, MEAN” value (IGF-I levels; 91 females, before mean 162.2, mean 133.4 days) of the same substance?
Its value is 236.3.

And the “Peak IFG levels FEMALES AFTER, MEDIAN” value (IGF-I levels; 91 females, before median 154)?
The value was 240.

What about the “Peak IFG levels FEMALES AFTER, MIN” value (IGF-I levels; 91 females, before min 41) of the same substance?
The value was 52.

And the “Peak IFG levels MALES CHANGE, 25%ile” value (IGF-I levels; 204 males)?
The value was 24.

What about the “Peak IFG levels MALES CHANGE, 50%ile” value (IGF-I levels; 204 males) of the same substance?
The value was 76.

What about the “Peak IFG levels MALES CHANGE, 75%ile” value (IGF-I levels; 204 males) of the same substance?
Its value is 125.

What about the “Peak IFG levels MALES CHANGE, MAX” value (IGF-I levels; 204 males) of the same substance?
Its value is 258.

What about the “Peak IFG levels MALES CHANGE, MEAN” value (IGF-I levels; 204 males) of the same substance?
The value was 74.4.

What about the “Peak IFG levels MALES CHANGE, MEDIAN” value (IGF-I levels; 204 males) of the same substance?
The value was 75.5.

And the “Peak IFG levels MALES AFTER, 25%ile” value (IGF-I levels; 204 males, before 147)?
The value was 217.

What about the “Peak IFG levels MALES AFTER, 50%ile” value (IGF-I levels; 204 males, before 183) of the same substance?
The value was 273.

And the “Peak IFG levels MALES AFTER, 75%ile” value (IGF-I levels; 204 males, before 231)?
The value was 325.

And the “Peak IFG levels MALES AFTER, MAX” value (IGF-I levels; 204 males, before max 361)?
The value was 396.

And the “Peak IFG levels MALES AFTER, MEAN” value (IGF-I levels; 204 males, before mean 192.3, mean 118.5 days)?
Its value is 266.7.

And the “Peak IFG levels MALES AFTER, MEDIAN” value (IGF-I levels; 204 males, before median 183)?
Its value is 272.5.

What about the “Peak IFG levels MALES AFTER, MIN” value (IGF-I levels; 204 males, before min 21) of the same substance?
The value was 63.

For human growth hormone [hGH], which “Somatomedin C Blood Levels Increase, Mean” value [2] is on record?
Its value is 61.0%.
